Results reported in paper PMC10002375, “Synthesis of 3-(2-Alkylthio-4-chloro-5-methylbenzenesulfonyl)-2-(1-phenyl-3-arylprop-2-enylideneamino)guanidine Derivatives with Pro-Apoptotic Activity against Cancer Cells” (International Journal of Molecular Sciences, 2023).

Legend:
Type in all cases: cell-based, human
HeLa cells [1] = assay: Phosphatidylserine translocation (Annexin V-FITC/PI), HeLa; conditions: 72 h
Description: (§1) One of the early indicators of apoptosis is the exposure of phosphatidylserine residues on the cell’s surface. Annexin V has a high affinity to phosphatidylserine and, as a conjugate to fluorescein isothiocyante (FITC), is widely used for detection of early apoptotic cells using flow cytometry. Detection of late-apoptotic or necrotic cells is achieved by using propidium iodide (PI) stain. Based on the obtained fluorescence, four subpopulations were found: PI-low/FITC-low (live cells), PI-high/FITC-low (necrotic cells), PI-low/FITC-high (early apoptotic cells), and PI-high/FITC-high (late apoptotic cells).
(§2) Analysis was performed using FITC-conjugated annexin-V (Annexin V-FITC Apoptosis Kit I, BD Biosciences, San Jose, CA, USA) according to the manufacturer’s instructions (BD Biosciences) as described previously. HeLa, MCF-7, and HCT-116, after seeding to 24-well plates (5 × 10^4/per well) and 24 h incubation, were treated for 72 h with 24 or 31 (10/25 µM or 25 µM concentration respectively). Following treatment, cells were washed in PBS, centrifuged, and then resuspended in a binding buffer. Afterward, the cells were incubated for 15 min at 37 °C with FITC-conjugated annexin-V and propidium iodide. The samples were then analyzed using a LSR II flow cytometer (BD Biosciences) using 530 ± 25 nm (Annexin V-FITC) and 575 ± 26 nm (PI).
(§3) The subpopulations were identified according to their fluorescence: PI-low/FITC-low (live cells), PI-high/FITC-low (necrotic cells), PI-low/FITC-high (early apoptotic cells), and PI-high/FITC-high (late apoptotic cells).

HeLa (cervical cancer) = assay: MTT cell viability assay, HeLa
Description: (§4) All chemicals, if not stated otherwise, were obtained from Sigma-Aldrich (St. Louis, MO, USA). The MCF-7 cell line was purchased from Cell Lines Services (Eppelheim, Germany), the HeLa and HCT-116 cell lines were obtained from the Department of Microbiology, Tumor and Cell Biology, Karolinska Institute (Stockholm, Sweden). Cells were cultured in Dulbecco’s modified Eagle’s medium (DMEM) supplemented with 10% fetal bovine serum, 2 mM glutamine, 100 units/mL penicillin, and 100 μg/mL streptomycin. Cultures were maintained in a humidified atmosphere with 5% CO2 at 37 °C in an incubator (HeraCell, Heraeus, Langenselbold, Germany).
(§5) Cell viability was determined using the MTT (3-(4,5-dimethylthiazol-2-yl)-2,5-diphenyl-tetrazoliumbromide) assay. Stock solutions of the studied compounds were prepared in 100% DMSO. […] Cells were seeded in 96-well plates at a density of 5 × 10^3 cells/well and treated for 72 h with the examined compounds in the concentration range 1–100 μM (1, 10, 25, 50, and 100 μM). Following treatment, MTT (0.5 mg/mL) was added to the medium and cells were further incubated for 2 h at 37 °C. Cells were lysed with DMSO and the absorbance of the formazan solution was measured at 550 nm with a plate reader (1420 multilabel counter, Victor, Jügesheim, Germany). […] The experiment was performed in triplicate. Values are expressed as the mean ± SD of at least three independent experiments.

[2] = tested on: MCF-7, HeLa and HCT-116 cells; assay: MTT assay, mean over three tested cancer cell lines
Description: (§6) The cytotoxic activity of the compounds 8–33 has been evaluated in MTT assays against three human cancer cell lines MCF-7 (breast cancer), HeLa (cervical cancer), and HCT-116 (colon cancer) and it was expressed as IC50 values in μM (Table 1).
Although the highest activity of the compounds with hydroxyl groups as the R^2 residue was against colon cancer cells, the inhibition of the growth of breast cancer cells was also remarkable.
as §5

HeLa cells [3] = assay: Mitochondrial membrane potential (JC-1, flow cytometry), HeLa; conditions: 72 h, 24 at 10 or 25 μM, 31 at 25 μM
Description: (§7) A decrease in mitochondrial potential is one of the earliest hallmarks of apoptosis. A common method for indication of cells with high and low Δψm is flow cytometry combined with specific fluorescent probes, such as JC-1 (5,5′,6,6′-tetrachloro-1,1′,3,3′-tetraethylbenzimidazolylcarbocyanine iodide). JC-1 accumulates in mitochondria and forms complexes (J aggregates) with red fluorescence in healthy cells with a normal ΔΨm, whereas in apoptotic cells with a low ΔΨm exists as a monomer with green fluorescence.
(§8) Analyzed cells were seeded into wells of a 24-well plate at a density of 5 × 10^4 cells in 1000 µL, incubated overnight, and then the medium was exchanged for dilutions of reagents 24 and 31. Before the end of 72 h of incubation, MitoProbe JC-1 (25 µM) was added into each plate well. Carbonyl cyanide m-chlorophenylhydrazone CCCP (200 nM) as the mitochondrial oxidative phosphorylation uncoupler was added into the positive control 15 min before JC-1 was added. After 30 min of JC-1 staining, cells were washed with PBS and then trypsinized (Corning® 25-053CI). Cells suspended in PBS were analyzed by flow cytometry at λ excitation (ex) = 488 nm and λ emission (em) = 525/570 nm (LSR II BD Biosciences, San Jose, CA, USA).

HCT-116 cells = assay: Cell cycle distribution by flow cytometry, HCT-116; conditions: for cells in sub-G1 phase: 72 h, control 1.15%
Description: The cell cycle distribution was measured by flow cytometry analysis after incubation of MCF-7, HeLa, and HCT-116 with compounds 24 and 31 for 72 h.

MCF-7 cells [4] = assay: Phosphatidylserine translocation (Annexin V-FITC/PI), MCF-7
Description: as §1, §2, §3

MCF-7 (breast cancer) = assay: MTT cell viability assay, MCF-7
Description: as §6, §4, §5

MCF-7 cells [5] = assay: Cell morphology by light microscopy, MCF-7; conditions: MCF-7, 10 and 25 μM, 72 h
Description: The evaluation of changes in cell morphology has been performed after incubation with compounds 24 and 31 for 72 h using light microscopy.
The HeLa, MCF-7, and HCT-116 cells were seeded on 24-well plates (5 × 10^4/per well) in 1 mL of medium for 24 h. After that time, cells were treated with 24 and 31 for next 72 h. Cells were treated with 10 µM, 25 µM of 24, or 25 µM of 31. As a control, non-treated cells were used. Morphology of cells was observed after 72 h using light microscope Olympus IX83.

MCF-7 cells [6] = assay: Mitochondrial membrane potential (JC-1, flow cytometry), MCF-7; conditions: MCF-7, 72 h, 24 at 10 or 25 μM, 31 at 25 μM
Description: as §7, §8

Cc1cc(S(=O)(=O)NC(N)=NN=C(C=Cc2ccccc2O)c2ccccc2)c(SCc2ccccc2Cl)cc1Cl [Compound 24, 3-{4-chloro-2-[(2-chlorophenyl)methylthio]-5-methylbenzenesulfonyl}-2-[3-(2-hydroxyphenyl)-1-phenylprop-2-enylideneamino]guanidine]
level of late apoptotic cells (Annexin V-FITC/PI) (HeLa cells [1]; 25 μM): significantly increased level of late apoptotic cells
population of apoptotic cells (Annexin V-FITC/PI) (HeLa cells [1]; 24 at 10 or 25 μM, 31 at 25 μM): increased population of apoptotic cells
Selectivity Index HeLa/HaCaT (HeLa (cervical cancer); HeLa versus HaCaT, from IC50 values): 1.9
IC50 (HeLa (cervical cancer); Homo sapiens, HeLa, MTT, 72 h): 17 ± 0.5 µM
selectivity ratio, mean IC50 against cancer cells versus IC50 for HaCaT ([2]; HaCaT versus mean of three cancer cell lines): 2.6
IC50 ([2]; Homo sapiens, mean of MCF-7, HeLa, HCT-116, MTT, 72 h, read-out: mean IC50 against three tested cell lines): 12.7 µM
change of mitochondrial membrane potential (ΔΨm) (HeLa cells [3]): remarkable decrease in ΔΨm
cells in sub-G1 phase (HCT-116 cells; HCT-116, 10 μM): 49.69%
cells in sub-G1 phase (HCT-116 cells; HCT-116, 25 μM): 65.31%
effect on cell cycle distribution (HCT-116 cells; HCT-116, 72 h, 24 at 10 and 25 μM, 31 at 25 μM): significant increase in the cell distribution in the sub-G1 phase
induction of apoptosis (Annexin V-FITC/PI) (MCF-7 cells [4]; MCF-7, 10 μM, 72 h): Induction of apoptosis
population of apoptotic cells (Annexin V-FITC/PI) (MCF-7 cells [4]; MCF-7, 72 h, 24 at 10 or 25 μM, 31 at 25 μM): increased population of apoptotic cells
IC50 (MCF-7 (breast cancer); Homo sapiens, MCF7, MTT, 72 h): 12 ± 0.6 µM
Selectivity Index MCF-7/HaCaT (MCF-7 (breast cancer); MCF-7 versus HaCaT, from IC50 values): 2.7
changes in cell morphology (MCF-7 cells [5]): apoptotic-like changes, such as shrinkage of the cells or detachment from the surface
change of mitochondrial membrane potential (ΔΨm) (MCF-7 cells [6]): remarkable decrease in ΔΨm
